In ChEMBL document CHEMBL3886282, “N-myristoyl transferase inhibitors” (2015):

Columns and labels:
[1] = molecular target: T1, Glycylpeptide N-tetradecanoyltransferase (Leishmania major, UniProt Q4Q5S8); assay: Enzyme Inhibition Assay: Measurements were performed using a modification of the scintillation proximity assay platform described previously by Georgopapadakou, N. H. et al. (22nd International Congress on Chemotherapy, 2001, Abstract P16.001). Compounds were solubilised in DMSO at a top concentration of 10 mM and serially diluted in half log steps to achieve a range of final assay concentrations …
T1 sequence (Q4Q5S8 whole entry): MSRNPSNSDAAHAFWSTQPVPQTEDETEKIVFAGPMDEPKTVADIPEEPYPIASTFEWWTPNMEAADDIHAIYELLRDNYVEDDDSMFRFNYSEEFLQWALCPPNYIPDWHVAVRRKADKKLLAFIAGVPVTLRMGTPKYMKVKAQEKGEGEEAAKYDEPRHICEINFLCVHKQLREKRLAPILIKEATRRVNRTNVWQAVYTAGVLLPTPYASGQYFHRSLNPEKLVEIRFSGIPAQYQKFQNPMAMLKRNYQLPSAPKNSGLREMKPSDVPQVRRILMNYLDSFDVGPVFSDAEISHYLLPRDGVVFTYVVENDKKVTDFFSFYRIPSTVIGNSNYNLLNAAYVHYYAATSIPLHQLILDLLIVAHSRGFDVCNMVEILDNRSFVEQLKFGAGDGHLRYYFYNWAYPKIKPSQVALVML

[2] = molecular target: T2, Glycylpeptide N-tetradecanoyltransferase 1 (Homo sapiens, UniProt P30419); assay: as above
T2 sequence (P30419 whole entry): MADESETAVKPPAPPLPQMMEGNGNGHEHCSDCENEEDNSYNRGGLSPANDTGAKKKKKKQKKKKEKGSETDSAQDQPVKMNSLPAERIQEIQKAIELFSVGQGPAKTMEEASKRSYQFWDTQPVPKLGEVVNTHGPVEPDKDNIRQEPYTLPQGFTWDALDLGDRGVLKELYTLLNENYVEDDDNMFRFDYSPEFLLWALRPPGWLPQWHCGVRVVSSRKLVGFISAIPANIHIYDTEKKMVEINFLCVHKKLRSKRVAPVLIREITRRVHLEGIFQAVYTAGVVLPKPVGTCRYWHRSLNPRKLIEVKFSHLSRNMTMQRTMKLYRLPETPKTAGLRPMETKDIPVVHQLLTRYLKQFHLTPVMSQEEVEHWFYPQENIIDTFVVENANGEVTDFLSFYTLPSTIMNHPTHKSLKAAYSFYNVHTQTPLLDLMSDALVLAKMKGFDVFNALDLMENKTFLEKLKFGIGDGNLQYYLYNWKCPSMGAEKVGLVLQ

SMILES	IC50 [1]	IC50 [2]
Cc1nn(C)c(C)c1N(C(F)F)S(=O)(=O)c1c(Cl)cc(CCCOC2CC(C)(C)N(C)C(C)(C)C2)cc1Cl	0.04 µM	> 1 µM
Cc1nn(C)c(C)c1N(C(F)F)[S+](=O)([O-])c1c(Cl)cc(Br)cc1Cl	> 1 µM	> 1 µM
